Ten compounds from ChEMBL document CHEMBL1201862, “PubChem BioAssay data set” (2004) can be followed below.

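Briefly, cells in 96-well plates were exposed to five compound concentrations for 48 h, and endpoints were estimated by linear interpolation. At the GI50, growth is halved.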 Calls of active or inactive are those of the source. Rule as the data show it: active = GI50 up to about 1.1 µM and inactive = higher.

Some test systems named below: DLD-1; DMS-114; DMS-273; HOP-18; LXFL 529; M19-MEL; XF498; SNB-78.
Common to all, as to assay: NCI anticancer screen, dose series, 48 h

In the case of `OCc1ccc(-c2ccc(-c3ccc(CO)s3)o2)s1`, the GI50 is 6.05 µM (inactive) in the experiment with DLD-1; 13.4 µM (inactive) in the experiment with DMS-114; 1.13 µM (inactive) with DMS-273; 0.341 µM (active) with HOP-18; 0.0158 µM (active) in the experiment on LXFL 529; 41.7 µM (inactive) in the experiment with M19-MEL. In addition, the GI50 in the experiment on XF498 is 0.0562 µM (active).
As to `O=C(CC(=O)c1ccccc1)C(=O)NC12CC3CC(CC(C3)C1)C2`, the GI50 in the experiment on DLD-1 is > 47.5 µM (inactive); in the experiment with DMS-114, > 42.4 µM (inactive); in the experiment on DMS-273, > 47 µM (inactive); in the experiment with HOP-18, > 100 µM (inactive); in the experiment on LXFL 529, > 100 µM (inactive); in the experiment on M19-MEL, > 100 µM (inactive). For the same compound, the GI50 with SNB-78 and with XF498 was > 100 µM (inactive) each time.
On to `Cc1cccc(N2C(=O)C(Cl)=C(Cl)C2=O)c1`, for which the GI50 in the experiment with DLD-1 is > 43 µM (inactive); with DMS-114, > 67.5 µM (inactive); in the experiment on DMS-273, > 100 µM (inactive); in the experiment on HOP-18 it was > 73.6 µM (inactive); in the experiment on LXFL 529, > 41.6 µM (inactive); in the experiment with M19-MEL, > 91.2 µM (inactive). Further, the GI50 with SNB-78 is > 100 µM (inactive); with XF498, 0.661 µM (active).
`COc1cc2cnc3c4cc(O)ccc4ccc3c2cc1OC`: the GI50 was > 100 µM (inactive) with DLD-1; 6.3 µM (inactive) in the experiment with DMS-114; 34.8 µM (inactive) with HOP-18; 6.08 µM (inactive) in the experiment with LXFL 529; 24.7 µM (inactive) with M19-MEL.
On to `CCCCCCCCCCCCCS(=O)(=O)NCC(N)=O`, for which the GI50 in the experiment on DLD-1, in the experiment on DMS-114, in the experiment with HOP-18, in the experiment on LXFL 529, with M19-MEL and in the experiment on SNB-78 was > 100 µM (inactive) throughout. Also, in the experiment on XF498, the GI50 was 69.8 µM (inactive).
For the compound `CCCC(C(=O)OC)C1N/C(=N/C#N)N(Cc2ccccc2)C1=O` (stereo unspecified), the GI50 in the experiment on DLD-1, in the experiment on DMS-114, in the experiment with DMS-273, with LXFL 529, with M19-MEL and in the experiment with XF498 was > 100 µM (inactive) throughout.
Take `COc1ccccc1N1C(=O)C2c3[nH]c4ccccc4c3C3CCC(C(C)(C)C)CC3C2C1=O` (stereo unspecified): the GI50 with DLD-1, in the experiment on DMS-114, in the experiment with DMS-273, in the experiment with HOP-18, with LXFL 529 and with M19-MEL was > 100 µM (inactive) in each case. Moreover, the GI50 with SNB-78 and in the experiment on XF498 was > 100 µM (inactive) each time.
Regarding `Cc1c(N)nc(C(CC(N)=O)NCC(N)C(N)=O)nc1C(=O)NC(C(=O)NC(C)C(O)C(C)C(=O)NC(C(=O)NCCc1nc(-c2nc(C(=O)NCCCNC(C)c3ccccc3)cs2)cs1)C(C)O)C(OC1OC(CO)C(O)C(O)C1OC1OC(CO)C(O)C(OC(N)=O)C1O)c1c[nH]cn1` (stereo unspecified), the GI50 with DLD-1 was 32.8 µM (inactive); in the experiment with DMS-114, 0.59 µM (active); with DMS-273, 0.0752 µM (active); in the experiment on HOP-18 it was 21.3 µM (inactive); in the experiment on LXFL 529, 23.9 µM (inactive); in the experiment on M19-MEL, 15 µM (inactive). The values for the GI50 in the experiment on SNB-78 and in the experiment with XF498 were > 50 µM (inactive) and 0.973 µM (active), respectively.
Take `N#CCCN(c1ccc(/C=N/c2nc(-c3ccccc3)cs2)cc1)S(=O)(=O)c1ccccc1`: the GI50 in the experiment on DLD-1 is 96.8 µM (inactive); in the experiment on DMS-114, 39.4 µM (inactive); with DMS-273 it was > 100 µM (inactive); in the experiment with LXFL 529, 56.9 µM (inactive); in the experiment on M19-MEL, > 100 µM (inactive); in the experiment with SNB-78, > 100 µM (inactive). The GI50 with XF498 was > 100 µM (inactive).
`COc1ccc(OC)c(NC(=O)C2=C(C)NC(C)=C(C(=O)Nc3cc(OC)ccc3OC)C2c2ccccc2)c1`: the GI50 was 21.7 µM (inactive) with DLD-1; 96.2 µM (inactive) with DMS-114; > 100 µM (inactive) with DMS-273; 1.04 µM (active) with HOP-18; > 100 µM (inactive) with LXFL 529; > 100 µM (inactive) in the experiment on M19-MEL. Besides, in the experiment with SNB-78, the GI50 is > 100 µM (inactive).
